Assay results from US20140135310A1, “SULPHONAMIDE DERIVATIVES OF ALICYCLIC AMINES FOR THE TREATMENT OF CENTRAL NERVOUS SYSTEM DISEASES” (Adamed Sp. z o.o., priority 2011, published 2014).
Read-outs that look alike come from different tables or passages of the source.

Assays:
Format in all cases: cell-based
[1] = biological target: T1, D4 dopaminergic receptors (Homo sapiens, UniProt P21917); experiment: Cellular functional assay, D4 dopaminergic receptors; conditions: D4.4 (h), CHO cells; for D4 ag [%]: agonism, percent of control specific agonist response (300 nM dopamine for control); for D4 antag [%]: antagonism, stimulus dopamine (100 nM)
T1 sequence (P21917 1-419): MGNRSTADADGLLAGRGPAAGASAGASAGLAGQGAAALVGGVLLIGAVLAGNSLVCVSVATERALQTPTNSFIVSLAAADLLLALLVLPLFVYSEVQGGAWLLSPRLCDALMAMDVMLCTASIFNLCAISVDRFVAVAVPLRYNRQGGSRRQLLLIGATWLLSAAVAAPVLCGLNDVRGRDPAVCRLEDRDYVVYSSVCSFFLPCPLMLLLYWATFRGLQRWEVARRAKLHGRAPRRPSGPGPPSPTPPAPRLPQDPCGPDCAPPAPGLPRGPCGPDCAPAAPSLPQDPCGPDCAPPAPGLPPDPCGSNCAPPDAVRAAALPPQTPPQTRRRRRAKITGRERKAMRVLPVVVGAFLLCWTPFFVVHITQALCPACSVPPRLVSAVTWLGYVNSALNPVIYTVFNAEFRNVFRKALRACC
Description: (§1) The results are expressed as a percent of control specific agonist response ((measured specific response/control specific agonist response)×100) obtained in the presence of the test compounds.
(§2) The EC50 values (concentration producing a half-maximal specific response) and IC50 values (concentration causing a half-maximal inhibition of the control specific agonist response) were determined by non-linear regression analysis of the concentration-response curves generated with mean replicate values using Hill equation curve fitting (Y=D+[(A−D)/(1+(C/C50)nH)], where Y=specific response, D=minimum specific response, A=maximum specific response, C=compound concentration, and C50=EC50 or IC50, and nH=slope factor). This analysis was performed using a software developed at Cerep (Hill software) and validated by comparison with data generated by the commercial software SigmaPlot® 4.0 for Windows® (© 1997 by SPSS Inc.).
(§3) For the antagonists, the apparent dissociation constants (Kb) were calculated using the modified Cheng Prusoff equation (Kb=IC50/(1+(A/EC50A)), where A=concentration of reference agonist in the assay, and EC50A=EC50 value of the reference agonist).

[2] = biological target: 5-HT2A serotoninergic receptors (Homo sapiens, UniProt P28223); experiment: Cellular functional assay, 5-HT2A serotoninergic receptors; conditions: for Kb: apparent dissociation constant, modified Cheng Prusoff equation, read-out: 5-HT2A antag Kb
Chain of 5-HT2A serotoninergic receptors (P28223 whole entry): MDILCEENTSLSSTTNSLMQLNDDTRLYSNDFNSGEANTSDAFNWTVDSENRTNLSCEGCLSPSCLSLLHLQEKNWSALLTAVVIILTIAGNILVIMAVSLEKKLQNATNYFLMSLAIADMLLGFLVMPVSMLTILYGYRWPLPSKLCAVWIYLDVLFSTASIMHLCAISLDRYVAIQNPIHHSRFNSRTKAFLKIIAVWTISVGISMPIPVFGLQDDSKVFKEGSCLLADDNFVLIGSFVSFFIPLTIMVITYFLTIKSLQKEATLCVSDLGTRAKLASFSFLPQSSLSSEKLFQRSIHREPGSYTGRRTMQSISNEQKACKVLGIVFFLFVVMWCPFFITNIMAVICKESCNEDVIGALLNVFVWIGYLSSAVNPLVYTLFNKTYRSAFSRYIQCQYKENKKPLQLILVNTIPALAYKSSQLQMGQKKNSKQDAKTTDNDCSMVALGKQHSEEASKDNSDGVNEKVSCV
Description: as §1
as §2, with “factor).” for “factor). This analysis was performed using a software developed at Cerep (Hill software) and validated by comparison with data generated by the commercial software SigmaPlot® 4.0 for Windows® (© 1997 by SPSS Inc.).”
as §3

[3] = biological target: 5-HT7 serotoninergic receptors (Homo sapiens, UniProt P34969); experiment: Cellular functional assay, 5-HT7 serotoninergic receptors; conditions: for 5-HT7 ag [%]: agonist mode, percent of control specific agonist response; for 5-HT7 antag [%]: antagonist mode; for Kb: apparent dissociation constant, modified Cheng Prusoff equation, read-out: 5-HT7 antag Kb
Chain of 5-HT7 serotoninergic receptors (P34969 whole entry): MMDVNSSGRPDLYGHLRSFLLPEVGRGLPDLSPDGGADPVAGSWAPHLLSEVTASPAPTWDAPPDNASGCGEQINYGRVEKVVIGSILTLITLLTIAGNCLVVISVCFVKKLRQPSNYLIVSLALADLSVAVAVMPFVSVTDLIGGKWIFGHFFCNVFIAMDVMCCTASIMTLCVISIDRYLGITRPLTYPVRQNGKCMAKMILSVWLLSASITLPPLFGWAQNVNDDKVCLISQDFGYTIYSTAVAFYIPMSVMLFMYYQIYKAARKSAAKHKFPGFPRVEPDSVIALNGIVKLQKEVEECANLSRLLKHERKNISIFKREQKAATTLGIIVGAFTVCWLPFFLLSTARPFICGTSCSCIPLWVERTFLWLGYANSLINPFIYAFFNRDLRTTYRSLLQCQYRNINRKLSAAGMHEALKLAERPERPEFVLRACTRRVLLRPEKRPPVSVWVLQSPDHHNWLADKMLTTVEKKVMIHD
Description: as §1, §2, §3

[4] = biological target: T2, 5-HT1A serotoninergic receptors (Homo sapiens, UniProt P08908); experiment: Cellular functional assay, 5-HT1A serotoninergic receptors; conditions: for 5-HT1A ag [%]: agonist mode, percent of control specific agonist response; for 5-HT1A antag [%]: antagonist mode
T2 sequence (P08908 1-422): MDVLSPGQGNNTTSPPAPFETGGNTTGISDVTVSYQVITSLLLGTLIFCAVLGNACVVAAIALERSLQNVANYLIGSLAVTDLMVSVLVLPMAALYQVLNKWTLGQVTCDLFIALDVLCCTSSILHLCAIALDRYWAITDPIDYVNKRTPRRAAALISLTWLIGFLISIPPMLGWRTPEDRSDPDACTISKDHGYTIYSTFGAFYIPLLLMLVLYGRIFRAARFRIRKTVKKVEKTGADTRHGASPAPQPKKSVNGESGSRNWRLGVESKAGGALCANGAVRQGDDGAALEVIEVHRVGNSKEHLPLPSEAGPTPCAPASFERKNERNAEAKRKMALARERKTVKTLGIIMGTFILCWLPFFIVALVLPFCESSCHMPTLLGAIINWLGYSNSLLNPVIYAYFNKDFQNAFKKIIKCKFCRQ
Description: as §1, §2, §3

[5] = biological target: D3 dopaminergic receptors (Homo sapiens, UniProt P35462); experiment: Cellular functional assay, D3 dopaminergic receptors; conditions: for D3 ag [%]: agonism, percent of control specific agonist response (0.3 μM dopamine for control); for D3 ag [%] / D3 antag [%]: D3 (h), CHO cells; for D3 antag [%]: antagonism, stimulus dopamine (10 nM); for Kb: apparent dissociation constant, modified Cheng Prusoff equation, read-out: D3 antag Kb
Chain of D3 dopaminergic receptors (P35462 whole entry): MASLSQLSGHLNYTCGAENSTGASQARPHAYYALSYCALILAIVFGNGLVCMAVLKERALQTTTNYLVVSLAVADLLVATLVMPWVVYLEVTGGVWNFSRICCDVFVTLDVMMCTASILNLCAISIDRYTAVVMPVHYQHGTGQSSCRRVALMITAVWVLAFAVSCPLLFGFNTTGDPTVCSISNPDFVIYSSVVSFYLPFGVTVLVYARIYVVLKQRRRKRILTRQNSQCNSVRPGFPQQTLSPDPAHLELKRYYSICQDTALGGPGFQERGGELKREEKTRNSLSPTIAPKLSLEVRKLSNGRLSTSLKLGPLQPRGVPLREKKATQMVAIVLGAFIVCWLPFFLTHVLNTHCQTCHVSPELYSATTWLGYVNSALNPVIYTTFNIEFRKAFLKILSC
Description: as §1, §2, §3

[6] = agonist mode, percent of control specific agonist response

| Molecule | D4 ag [%] [1] [%] | D4 antag [%] [1] [%] | 5-HT2A ag [%] [2] [%] | 5-HT7 ag [%] [3] [%] | 5-HT1A ag [%] [4] [%] | D3 ag [%] [5] [%] | D3 antag [%] [5] [%] | 5-HT2A ag [%] [2, 6] [%] | also measured |
| --- | --- | --- | --- | --- | --- | --- | --- | --- | --- |
| O=S(=O)(NC1CCN(CCCc2noc3cc(F)ccc23)C1)c1cccc2ccccc12 (stereo not drawn) [Compound 20, N-[1-[3-(6-Fluoro-1,2-benzoxazol-3-yl)propyl]pyrrolidin-3-yl]naphthalene-1-sulphonamide] | 17 | 79 | 0 | −2 |  |  |  |  |  |
| Cc1cccc(S(=O)(=O)NC2CN(CCOc3cccc4c3OCCO4)C2)c1 [Compound 93, N-[1-[2-(2,3-Dihydro-1,4-benzodioxan-8-yloxy)ethyl]azetidin-3-yl]-3-methyl-benzenesulphonamide] |  |  |  | 13 | 37 |  |  |  | 5-HT1A antag [%] [4]: 76%; 5-HT7 antag [%] [3]: 76% |
| Cc1cccc(S(=O)(=O)NC2CCN(CCCc3c[nH]c4ccc(F)cc34)C2)c1 (stereo not drawn) [Compound 78, N-[1-[3-(5-Fluoro-1H-indol-3-yl)propyl]pyrrolidin-3-yl]-3-methyl-benzenesulphonamide] |  |  | 51 |  | 54 | 89 | −10 |  | 5-HT2A antag [%] [2]: −1% |
| O=S(=O)(NC1CN(CCOc2cccc3c2OCCO3)C1)c1ccc(Cl)cc1 [Compound 92, 4-Chloro-N-[1-[2-(2,3-dihydro-1,4-benzodioxan-8-yloxy)ethyl]azetidin-3-yl]benzene-sulphonamide] |  |  |  | 18 | 47 |  |  |  | 5-HT1A antag [%] [4]: 89%; 5-HT7 antag [%] [3]: 69% |
| O=S(=O)(NC1CN(CCOc2cccc3[nH]ccc23)C1)c1cccc2ccccc12 [Compound 49, N-[1-[2-(1H-Indol-4-yloxy)ethyl]azetidin-3-yl]naphthalene-1-sulphonamide] |  |  |  | 26 | 39 | 75 | 12 |  |  |
| O=S(=O)(N[C@@H]1CCN(CCCc2noc3cc(F)ccc23)C1)c1csc2ccccc12 [Compound 224, N-[(3R)-1-[3-(6-Fluoro-1,2-benzoxazol-3-yl)propyl]pyrrolidin-3-yl]benzothiophene-3-sulphonamide] | −7 | 84 |  | −1 |  |  |  | −2 |  |
| O=S(=O)(NC1CCN(CCOc2cccc3[nH]ccc23)CC1)c1ccccc1 [Compound 55, N-[1-[2-(1H-Indol-4-yloxy)ethyl]-4-piperidine]benzenesulphonamide] |  |  |  | 5 | 72 | 82 | −33 | −1 | 5-HT1A antag [%] [4]: 18%; 5-HT7 antag [%] [3]: 48% |
| Cc1cc(S(=O)(=O)N[C@H]2CCN(CCCc3noc4cc(F)ccc34)C2)c(C)s1 [Compound 223, N-[(3S)-1-[3-(6-Fluoro-1,2-benzoxazol-3-yl)propyl]pyrrolidin-3-yl]-2,5-dimethyl-thiophene-3-sulphonamide] | 4 | 22 | 0 | 0 |  |  |  |  |  |
| N-[[1-[2-[(2,2-Dimethyl-3H-benzofuran-7-yl)oxy]ethyl]azetidin-3-yl]methyl]-3-hydroxy-benzenesulphonamide [Compound 111] |  |  |  | 24 | 48 |  |  | 5 | 5-HT1A antag [%] [4]: 89%; 5-HT2A antag [%] ([2]; antagonist mode): 58%; 5-HT7 antag [%] [3]: 55% |
| O=S(=O)(NC1CCN(CCCc2noc3cc(F)ccc23)C1)c1csc2ccccc12 (stereo not drawn) [Compound 26, N-[1-[3-(6-Fluoro-1,2-benzoxazol-3-yl)propyl]pyrrolidin-3-yl]-benzothiophene-3-sulphonamide] | −4 | 88 |  | −3 |  |  |  | −1 |  |
| Cc1cc(S(=O)(=O)N[C@@H]2CCN(CCCc3noc4cc(F)ccc34)C2)c(C)s1 [Compound 222, N-[(3R)-1-[3-(6-Fluoro-1,2-benzoxazol-3-yl)propyl]pyrrolidin-3-yl]-2,5-dimethyl-thiophene-3-sulphonamide] | 6 | 58 | −1 | −1 |  |  |  |  |  |
| O=S(=O)(NC1CCN(CCCc2noc3cc(F)ccc23)C1)c1cc2ccccc2s1 (stereo not drawn) [Compound 25, N-[1-[3-(6-Fluoro-1,2-benzoxazol-3-yl)propyl]pyrrolidin-3-yl]-benzothiophene-2-sulphonamide] |  |  | −2 | −2 |  | 0 | 82 |  | Kb [5]: 8 nM; Kb [2]: 4.7 nM; Kb [3]: 1.4 nM |
| COc1ccc2cc(S(=O)(=O)NC3CCN(CCCc4noc5cc(F)ccc45)C3)ccc2c1 (stereo not drawn) [Compound 227, N-[1-[3-(6-Fluoro-1,2-benzoxazol-3-yl)propyl]pyrrolidin-3-yl]-6-methoxy-naphthalene-2-sulphonamide] |  |  |  | −2 |  | −6 | 105 | −2 |  |
| O=S(=O)(N[C@@H]1CCN(CCCc2noc3cc(F)ccc23)C1)c1cc2ccccc2s1 [Compound 196, N-[(3R)-1-[3-(6-Fluoro-1,2-benzoxazol-3-yl)propyl]pyrrolidin-3-yl]benzo-thiophene-2-sulphonamide] |  |  | 0 | 0 |  | −16 | 77 |  | Kb [5]: 71 nM; Kb [2]: 8.3 nM; Kb [3]: 0.57 nM |
| O=S(=O)(NC1CCN(CCOc2nsc3ccccc23)C1)c1ccc2ccccc2c1 (stereo not drawn) [Compound 39, N-[1-[2-(1,2-Benzothiazol-3-yloxy)ethyl]pyrrolidin-3-yl]naphthalene-2-sulphonamide] |  |  | 3 | 1 | 34 | 66 | 16 |  |  |
| Cc1cc(S(=O)(=O)NC2CCN(CCCc3noc4cc(F)ccc34)C2)c(C)s1 (stereo not drawn) [Compound 221, N-[1-[3-(6-Fluoro-1,2-benzoxazol-3-yl)propyl]pyrrolidin-3-yl]-2,5-dimethyl-thiophene-3-sulphonamide] | 10 | 73 | −2 | 2 |  | −3 | 100 |  |  |
| O=S(=O)(N[C@H]1CCN(CCCc2noc3cc(F)ccc23)C1)c1csc2ccccc12 [Compound 225, N-[(3S)-1-[3-(6-Fluoro-1,2-benzoxazol-3-yl)propyl]pyrrolidin-3-yl]benzothiophene-3-sulphonamide] | −3 | 35 |  | 0 |  |  |  | −1 |  |
| Cc1c(S(=O)(=O)NC2CCN(CCCc3noc4cc(F)ccc34)C2)sc2ccc(F)cc12 (stereo not drawn) [Compound 28, 5-Fluoro-N-[1-[3-(6-fluoro-1,2-benzoxazol-3-yl)propyl]pyrrolidin-3-yl]-3-methyl-benzothiophene-2-sulphonamide] |  |  |  | −3 |  | −8 | 74 | −2 |  |
